{"source": "patent US20100003217A1", "about": "“Compounds and Pharmaceutical Compositions for the Treatment of Viral Infections” (priority 2008, published 2010)", "type_in_all_cases": "in vitro ADME", "key": {"CYP3A4": {"biological_target": "CYP3A4 (Homo sapiens, UniProt P08684)", "sequence (P08684 whole entry)": "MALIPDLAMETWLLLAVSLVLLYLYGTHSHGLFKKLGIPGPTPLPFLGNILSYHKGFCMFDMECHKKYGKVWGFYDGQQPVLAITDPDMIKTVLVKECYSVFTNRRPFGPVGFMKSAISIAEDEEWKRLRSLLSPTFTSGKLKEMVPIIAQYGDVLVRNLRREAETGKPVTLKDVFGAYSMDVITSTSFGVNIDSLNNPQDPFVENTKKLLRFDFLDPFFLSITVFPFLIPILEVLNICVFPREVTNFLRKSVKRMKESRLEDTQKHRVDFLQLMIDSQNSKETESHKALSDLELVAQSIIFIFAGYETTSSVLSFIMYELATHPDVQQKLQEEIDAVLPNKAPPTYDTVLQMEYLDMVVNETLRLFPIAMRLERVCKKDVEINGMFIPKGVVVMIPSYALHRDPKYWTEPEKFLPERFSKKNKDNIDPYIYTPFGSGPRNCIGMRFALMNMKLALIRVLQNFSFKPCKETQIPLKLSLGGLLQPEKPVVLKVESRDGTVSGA", "experiment": "Incubation with human recombinant CYP450 supersomes, 3A4", "conditions": "CYP450 3A4 supersomes, 60 min, 10 μM, average of two experiments", "experimental": "(§1) Supersomes—Incubations were conducted in a final volume of 0.1 mL reaction buffer (50-100 mM potassium phosphate, pH 7.4 or 100 mM Tris-HCL, pH 7.4) according to protocol provided with each CYP450 supersome. Each reaction contained […] of CYP450 supersome, 1.3 mM NADP^+, 3.3 mM glucose-6-phosphate, 0.4 U/mL glucose-6-phosphate dehydrogenase, 3.3 mM MgCl2 and 10 μM Compound 1. Following incubation for 60 min at 37° C., 100 μL of stop solution (acetonitrile:methanol; 1:1) was added and samples centrifuged for 10 min at 10,000×g. The supernatant was then dried and reconstituted in 10 mM potassium phosphate, pH 5, further transferred to an HPLC glass vial and analyzed by HPLC-UV (described above)."}, "CYP2A6": {"biological_target": "CYP2A6 (Homo sapiens, UniProt P11509)", "sequence (P11509 whole entry)": "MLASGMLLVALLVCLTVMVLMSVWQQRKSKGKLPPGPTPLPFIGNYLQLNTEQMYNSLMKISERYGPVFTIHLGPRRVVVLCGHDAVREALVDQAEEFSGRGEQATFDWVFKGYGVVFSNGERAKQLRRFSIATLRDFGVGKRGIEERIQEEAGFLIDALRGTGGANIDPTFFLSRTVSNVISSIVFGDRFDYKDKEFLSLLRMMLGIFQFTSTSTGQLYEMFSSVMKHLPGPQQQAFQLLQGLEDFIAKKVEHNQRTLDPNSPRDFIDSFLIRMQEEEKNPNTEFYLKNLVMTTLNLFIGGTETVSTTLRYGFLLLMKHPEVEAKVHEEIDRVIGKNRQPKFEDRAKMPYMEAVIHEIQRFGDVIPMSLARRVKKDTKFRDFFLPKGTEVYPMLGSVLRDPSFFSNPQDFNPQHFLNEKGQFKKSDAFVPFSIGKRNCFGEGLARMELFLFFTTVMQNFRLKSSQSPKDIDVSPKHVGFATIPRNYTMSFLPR", "experiment": "Incubation with human recombinant CYP450 supersomes, 2A6", "conditions": "CYP450 2A6 supersomes, 60 min, 10 μM, average of two experiments", "experimental": "as §1"}, "[1]": {"system": "primary hepatocytes (human, monkey, rat)", "experiment": "Primary hepatocytes, statements pooled over human, monkey and rat", "experimental": "Primary hepatocytes: Freshly isolated cells from animal and human liver were obtained in suspension on ice. Cells were pelleted by centrifugation at 70-75×g (rat) or 95-90×g (monkey and human) and resuspended at 0.8 million cells per mL of platting medium (William's E supplemented with 5% FBS, 0.5% penicillin-streptomycin, 1% L-glutamine, 4 μg/mL insulin and 1 μM dexamethasone). Multi-well collagen I-coated plates (rat tail collagen type I; 12- or 6-well) were then seeded by addition of 1 mL (12-well; 0.8 million cells/well) or 2 mL (6-well; 1.6 million cells/well) of cell suspension. […]\nCellular extracts were prepared by centrifugation at 16,000 RCF using an Eppendorf microcentrifuge (Eppendorf, Model 5415D) for 10 min to remove cellular debris. An aliquot of 5-10 μL of the supernatant was added to 5 mL of EcoLite™ (MP, Irvine, Calif.) liquid scintillation cocktail and radioactivity measured by liquid scintillation counting (LSC) using a Beckman Coulter LS6500 multipurpose liquid scintillation counter (Beckman Instruments, Fullerton, Calif.). […] Prior to HPLC analysis (described below), radioactivity of the concentrated extracts was measured by LSC using 5 μL aliquots. Extraction recovery was then determined by comparing total radioactivity in extracts before and after drying. […] Samples with poor recovery (<85%) were re-analyzed when possible. […]"}, "[2]": {"experiment": "In vitro intracellular half-life of 2′-C-methyl guanosine-5′-triphosphate (Compound 7) in human primary hepatocytes", "conditions": "human, primary hepatocytes (cellular extracts)", "experimental": "(§2) Primary hepatocytes were incubated with 10 μM [^14C]-Compound 1 ([…]) or [^14C]-2′-C-methyl guanosine (127 DPM/μmol) for 24 hours at which time the incubation medium was removed and the cell monolayer carefully washed two times with warm (37° C.) PBS and placed back in culture with drug-free medium. At selected times up to 24 hours, the medium was removed and the cell monolayers carefully washed two times with ice-cold PBS. Following the last wash, all PBS was carefully removed and the cell monolayers processed and extracted as previously described. […]"}, "[3]": {"system": "human primary hepatocytes", "experiment": "In vitro intracellular half-life of 2′-C-methyl guanosine-5′-triphosphate (Compound 7) in human primary hepatocytes", "conditions": "for Decay of Compound 7: level in cellular extracts: human hepatocytes Hu775; for Compound 7 levels after 24 hours without drug / reduction of Compound 7 levels after 24 hours without drug / Compound 7 levels at time zero: human hepatocytes", "experimental": "as §2"}, "[4]": {"conditions": "[^14C]-2′-C-methyl guanosine removed"}}}
{"smiles": "CC(C)(CO)C(=O)SCCOP(=O)(NCc1ccccc1)OC[C@H]1O[C@@H](n2cnc3c(=O)[nH]c(N)nc32)[C@](C)(O)[C@@H]1O", "note": "(mixture of isomers) [Compound 1, 3-hydroxy-2,2-dimethyl-thiopropionic acid S-(2-{[(2R,3R,4R,5R)-5-(2-amino-6-oxo-1,6-dihydro-purin-9-yl)-3,4-dihydroxy-4-methyl-tetrahydro-furan-2-ylmethoxy]-benzylamino-phosphoryloxy}-ethyl) ester]", "values": [{"measurement": "% Residual Compound 1", "setting": "CYP3A4", "value": 62, "unit": "%"}, {"measurement": "% Residual Compound 1", "setting": "CYP2A6", "value": 105, "unit": "%"}]}
{"smiles": "C[C@@]1(O)[C@H](O)[C@@H](CO)O[C@H]1n1cnc2c(=O)[nH]c(N)nc21", "note": "[2′-C-methyl guanosine, 9-(2-C-methyl-β-D-ribofuranosyl)guanine, reference compound]", "values": [{"measurement": "metabolites in the incubation medium following incubation with [^14C]-2′-C-methyl guanosine", "setting": "[1]; primary hepatocytes, 10 μM or 1 μM", "value": "No metabolites were observed"}]}
{"smiles": "C[C@@]1(O)[C@H](O)[C@@H](COP(=O)(O)OP(=O)(O)OP(=O)(O)O)O[C@H]1n1cnc2c(=O)[nH]c(N)nc21", "note": "[Compound 7, [(2R)-2-methyl-β-D-ribofuranosyl]guanine 5′-triphosphate]", "values": [{"measurement": "half-life at 10 μM", "setting": "[2]; in vitro half-life for Compound 7, human hepatocytes, after 2′-C-methyl guanosine", "value": 10.8, "unit": "h"}, {"measurement": "half-life at 10 μM", "setting": "[2]; in vitro half-life for Compound 7, human hepatocytes, following [^14C]-Compound 1", "value": 17.4, "unit": "h"}, {"measurement": "half-life at 10 μM", "setting": "[2]; in vitro intracellular t1/2 of Compound 7, human hepatocytes Hu775, after 24 h incubation with 10 μM [^14C]-2′-C-methyl guanosine, linear regression", "value": 10.8, "unit": "h"}, {"measurement": "half-life at 10 μM", "setting": "[2]; in vitro intracellular t1/2 of Compound 7, human hepatocytes Hu775, after 24 h incubation with 10 μM [^14C]-Compound 1, linear regression", "value": 17.4, "unit": "h"}, {"measurement": "Decay of Compound 7: level in cellular extracts", "setting": "[3]; after 24 h incubation with 10 μM [^14C]-2′-C-methyl guanosine, decay time 0 h", "value": 266, "unit": "pmol/million cells"}, {"measurement": "Decay of Compound 7: level in cellular extracts", "setting": "[3]; after 24 h incubation with 10 μM [^14C]-2′-C-methyl guanosine, decay time 1 h", "value": 259, "unit": "pmol/million cells"}, {"measurement": "Decay of Compound 7: level in cellular extracts", "setting": "[3]; after 24 h incubation with 10 μM [^14C]-2′-C-methyl guanosine, decay time 4 h", "value": 217, "unit": "pmol/million cells"}, {"measurement": "Decay of Compound 7: level in cellular extracts", "setting": "[3]; after 24 h incubation with 10 μM [^14C]-2′-C-methyl guanosine, decay time 8 h", "value": 190, "unit": "pmol/million cells"}, {"measurement": "Decay of Compound 7: level in cellular extracts", "setting": "[3]; after 24 h incubation with 10 μM [^14C]-2′-C-methyl guanosine, decay time 24 h", "value": 58.0, "unit": "pmol/million cells"}, {"measurement": "Decay of Compound 7: level in cellular extracts", "setting": "[3]; after 24 h incubation with 10 μM [^14C]-Compound 1, decay time 0 h", "value": 692, "unit": "pmol/million cells"}, {"measurement": "Decay of Compound 7: level in cellular extracts", "setting": "[3]; after 24 h incubation with 10 μM [^14C]-Compound 1, decay time 1 h", "value": 702, "unit": "pmol/million cells"}, {"measurement": "Decay of Compound 7: level in cellular extracts", "setting": "[3]; after 24 h incubation with 10 μM [^14C]-Compound 1, decay time 4 h", "value": 597, "unit": "pmol/million cells"}, {"measurement": "Decay of Compound 7: level in cellular extracts", "setting": "[3]; after 24 h incubation with 10 μM [^14C]-Compound 1, decay time 8 h", "value": 497, "unit": "pmol/million cells"}, {"measurement": "Decay of Compound 7: level in cellular extracts", "setting": "[3]; after 24 h incubation with 10 μM [^14C]-Compound 1, decay time 24 h", "value": 273, "unit": "pmol/million cells"}, {"measurement": "Compound 7 levels after 24 hours without drug", "setting": "[3]; [4]", "value": 58, "unit": "pmol/million cells"}, {"measurement": "reduction of Compound 7 levels after 24 hours without drug", "setting": "[3]; [4]", "value": 78, "unit": "%"}, {"measurement": "Compound 7 levels after 24 hours without drug", "setting": "[3]; [^14C]-Compound 1 removed", "value": 273, "unit": "pmol/million cells"}, {"measurement": "reduction of Compound 7 levels after 24 hours without drug", "setting": "[3]; [^14C]-Compound 1 removed", "value": 61, "unit": "%"}, {"measurement": "Compound 7 levels at time zero", "setting": "[3]; after 24 h with 10 μM [^14C]-Compound 1", "value": 692, "unit": "pmol/million cells"}, {"measurement": "Compound 7 levels at time zero", "setting": "[3]; after 24 h with [^14C]-2′-C-methyl guanosine", "value": 266, "unit": "pmol/million cells"}, {"measurement": "% of the total intracellular radioactivity", "setting": "[1]; extracts of primary hepatocytes, all three species, 4-24 hours, [^14C]-Compound 1", "value": "60-81%"}]}
